Here are results for one compound from patent US6908934B2, “Therapeutic compounds for treating dyslipidemic conditions” (Merck & Co., Inc., priority 2001, dated 2005).

For this assay, the system named is ABCA1 mRNA. As to the kind of experiment: cells. The format is cell-based. As to conditions: Primary macrophage, human primary macrophages, 18 h + 6 h treatment, vs DMSO control, read-out: Fold Induction of ABCA1 mRNA (Mean ± SEM). On the procedure: Induction of ABCA1 mRNA Levels
Human Primary Macrophages were used to test the ability of LXR ligands to induce the expression of ABCA1 mRNA. The collection and purification of monocytes and their subsequent differentiation into macrophages by culturing in Teflon jars for 7-9 days was performed according to Wright and Silverstein J. Exp. Med. V156, October 1982 pp 1149-1164. Cells were harvested from the Teflon jars and seeded into appropriate vessels in RPMI1640 plus 12% human serum and antibiotics. Cells were allowed to recover overnight before treatment. Treatment was for 18 hours with the described compounds, followed by a re-application of fresh compounds for an additional 6 hours in DMEM minus Phenol Red with 10% charcoal stripped FCS. The cells were harvested and total RNA prepared using the phenol/guanidine isothiocyanate method as supplied and described by Molecular Research Center, Inc. (TRI REAGENT® Cat. No. TR 118). ABCA1 mRNA levels in the total RNA were measured using the TaqMan® mRNA quantitation system, following protocols published by the manufacturer (Perkin-Elmer). The oligonucleotide PCR primers used to detect ABCA1 were:
The oligonucleotide probe used was:
6FAM-[…]-TAMRA ABCA1 mRNA levels in each sample were normalized to the mRNA levels for the 23 kDa highly basic protein. The oligonucleotide PCR primers used to detect the 23 kDa highly basic protein were: […]

Structures are written as SMILES.

Take `CC(C)CC[C@@H](O)[C@@H](C)[C@H]1CC[C@H]2[C@@H]3CC=C4C[C@@H](O)CC[C@]4(C)[C@H]3CC[C@]12C` [22-(R)-hydroxycholesterol]: the fold induction at 10 µM was 8 ± 1.37.
